The results in this text go back to patent US10947323B2, “Capped cyclodextrin-hydrophobic moiety conjugate, cyclodextrin supramolecular polymer, and cyclodextrin-siRNA complex and method of synthesis thereof” (SORBONNE UNIVERSITE, priority 2016, dated 2021).

The structures appear in SMILES notation.

In series [1] the test system is firefly luciferase GL3 expression in HEK293 cells. The series can be described thus: KnockDown test of the luciferase GL3 gene (siRNA transfection, One-Glo luminescence). In kind it is cell-based, human. The following applies: siRNA complexes, N/P ratio of 1190, 24 hours, untransfected cells = 100% expression. The protocol: The cell line to be transfected is a cell line of human embryonic kidney 293 cells (HEK293). This cell line is cultivated with a DMEM medium to which SVF (10%) is added.
The cultures are made in an incubator at 37° C., 5% of CO2. The cell line HEK293 express constitutively the firefly luciferase GL3.
The HEK293 cells are deposited in a 96 wells plaque 1·10^3 cell/wells.
The siRNA which is used is the luciferase GL3 siRNA.
Transfection of cell line HEK293 with the siRNA directed against the firefly luciferase GL3 with as vector of transfection the […] obtained in example 1 or Lipofectamine 2000 (used as a positive reference of transfection) has been carried out.
The efficacy of transfection on the cells has been evaluated by a method of luminescence.
One day before the transfection, the HEK293 cells are deposited in a 96 wells plaque: 1·10^3 cell/wells treated in 200 μL of DMEM, SVF 10%, without antibiotics, in order that the cells reach a 30-50% of confluence the day after.
The day of the transfection, the 200 μL/wells of medium are withdrawn. […]
This latter is incubated at 37° C. during 24 hours until the analysis by luminescence of the KD of the gene of the luciferase (Kit One-Glo luciferase assay (Promega)).
For this aim, 100 μL/wells of reactants are added to the cells before the plaque be analyzed by luminescence.

Another series relates to HEK293 cells. Kind of series: Toxicity test (cell viability, ATP activity, CellTiter Glo 2.0). The conditions noted are these: over the range of N/P ratios, 24 hours. In kind it is cell-based, human. On the procedure: In order to evaluate the toxicity of compound 11 of example 1 on HEK293 cells, the kit CellTiter Glo 2.0 (Promega) has been used.
One day before the transfection, the cells HEK293 are deposited in a 96-wells plaque: 1·10^3 cell/wells and then treated with 200 μL of DMEM, SVF 10%, without antibiotics, in order that the cells reach a 30-50% of confluence the day after.
The day of the transfection, the cells are incubated with the complex siRNA-cyclodextrin conjugate obtained in example 1 and Lipofectamine 2000.siRNA at 37° C. during 24 hours until analysis of the cells viability (ATP activity) using a kit CellTiter Glo 2.0.
For this aim 100 μL/wells of CellTiter Glo 2.0. reactant are added to the cells before the plaque be analyzed by luminescence.

A further series has as its system siRNA. The series can be described thus: Agarose gel electrophoresis of siRNA complex formation at increasing N/P ratios. It is filed as binding. The conditions noted are these: at low N/P ratios; 100 V, 40 min. On the procedure: In order to characterize the formation of complexes between the siRNA and the compound 11 of the invention obtained in example 1, an electrophorese technique on agarose gel has been used.
The molecule of siRNA and of compound of example 1 have been migrated according to N/P previously chosen.
A solution of 17 μL of siRNA-compound of example 1 is prepared in sterile water and incubated during 20 minutes at ambient temperature.
Then, this solution is deposited on the gel with 3 μL of bromophenol blue before launching the migration: 100 V, 40 min.
Third, thanks to the experiment with agarose electrophoresis gel, it has been shown that capped cyclodextrine-adamantane conjugate are able to interact and to complex siRNA. Indeed, capped cyclodextrine-adamantane complex formation was evaluated at increasing N/P ratios using agarose gel electrophoresis. (FIG. 3)
N/P ratio corresponds to the amount of protonated aminated residue of the cationic species divided by the amount of phosphate residues coming from the nucleic acids.^14 This ratio enables to compare the efficiency of a cationic compound to be complexed with nucleic acids. ^14 Pharmaceutics. 2011, 3, 125-140

Regarding `OCC1O[C@@H]2O[C@@H]3C(CO)O[C@H](O[C@@H]4C5CN(CCC67CC8CC(CC(C8)C6)C7)CCCCNCC6O[C@H](O[C@@H]7C(CO)O[C@H](O[C@H]1C(O)C2O)C(O)C7O)C(O)C(O)[C@@H]6O[C@H]1OC(CO)[C@@H](O[C@H]2OC(CO)[C@@H](O[C@@H](O5)C(O)C4O)C(O)C2O)C(O)C1O)C(O)C3O` (stereo partly drawn) [compose 11], the “knockdown of GL3 luciferase expression” value in series [1] was no more than 50%. For the same compound, the “cytotoxicity of transfection with siRNA complexes” value in the series on HEK293 cells is on record as “no cytotoxicity”. For the same compound, the “binding (complexation) of siRNA, no migration of siRNA in gel” value with siRNA is “complete binding of siRNA”.
